In PubChem BioAssay AID179 (DTP/NCI, 2004):
Active and inactive are the calls of the source.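 The calls were made as follows: active = compounds giving half or more protection of infected cells from virus-caused growth loss, again on retest; inactive = the rest.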

Test system: CEM cells HIV-1 protection, formazan growth assay
Test: NCI AIDS Antiviral Assay
Conditions: for IC50: measured here: growth of uninfected CEM cells
How it was run: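 CEM (human) cells, HIV-1 infected vs uninfected, 5-point dosing, formazan growth read-out. Retest threshold 50% protection.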

SMILES	EC50	IC50	outcome
CC1OC(OC2C(O[C@H]3CC[C@@]4(C)C(=CC[C@H]5[C@@H]6C[C@@H]7O[C@]8(CC[C@@H](C)CO8)[C@@H](C)[C@@H]7[C@@]6(C)CC[C@@H]54)C3)OC(CO)C(O)C2OC2OC(CO)C(O)C(O)C2O)C(O)C(O)C1O (some centres not stated)	> 200 µM	1.17 µM	
COc1ccc(-c2cc(C(=O)O)c3cc4ccccc4cc3n2)cc1Br			inactive
COC1OC(=O)c2ccccc21 (configuration not stated)			inactive
COc1ccc(N2C(=O)C3CSCN3C2=O)cc1 (configuration not stated)	> 200 µM	> 200 µM	
CCCCOC(=O)NC(Nc1cccc(C(F)(F)F)c1)(C(F)(F)F)C(F)(F)F	> 200 µM	50.1 µM	
COC1(CC[C@@H](C)COC2OC(CO)C(O)C(O)C2O)O[C@H]2C[C@H]3[C@@H]4CC=C5C[C@@H](OC6OC(CO)C(OC7OC(C)C(O)C(O)C7O)C(O)C6OC6OC(C)C(O)C(O)C6O)CC[C@]5(C)[C@H]4CC[C@]3(C)[C@H]2[C@@H]1C (some centres not stated)	> 200 µM	2.57 µM	
C=CCC1(c2ccccc2)Oc2ccccc2-n2cccc2C1=O (configuration not stated)	7.08 µM	10.5 µM	
NC(CCc1ncc(C(=O)O)s1)C(=O)O (configuration not stated)			inactive
O=C1CC(=O)N(C=C2C(=O)NC(=O)NC2=O)C(=S)N1	> 200 µM	> 200 µM	
O=C(O)CCNS(=O)(=O)c1ccc2ccccc2c1			inactive
Cc1ccc2cccc(-c3cccc4ccccc34)c2n1	> 200 µM	10.5 µM	
COC(=O)C1(C)CCCC2(C)C1CCC1(O)C(O)C(C(C)C)=CCC21 (configuration not stated)	> 200 µM	56.2 µM	
O=C1C=CC(=O)C2C3c4ccccc4C(c4ccccc43)C12 (configuration not stated)	> 34.7 µM	> 34.7 µM	
O=C1CCCc2sccc21	> 200 µM	> 200 µM	
O=C1OC(C(O)CO)C(C(O)CO)OC1=O (configuration not stated)	> 200 µM	> 200 µM	
O=[N+]([O-])c1ccc2nc(/C=C(\O)c3ccc(Cl)cc3)c(/C=C(\O)c3ccc(Cl)cc3)nc2c1	> 200 µM	89.1 µM	

SMILES	EC50	IC50	outcome
CCCCCCC/C=N/[N-]C(=O)c1ccncc1.CCCCCCC/C=N\[N-]C(=O)c1ccncc1.[Ni+2]	> 100 µM	64.6 µM	
Cc1ccc2[nH]c3[nH]c(=S)[nH]c(=O)c3c2c1	22.4 µM	162 µM	
C#CCNC(CS)C(=O)O (configuration not stated)	> 200 µM	> 200 µM	
COC(=S)SSC(=S)NCCN(CCNC(=S)SSC(=S)OC)C(=S)SSC(=S)OC	> 257 µM	209 µM	
O=C(OC1CCC(=C2SCCCS2)[C@H]1C1SCCCS1)c1ccccc1 (some centres not stated)			inactive
S=C1C(=Nc2ccccc2)N(c2ccccc2)/C(=N\c2ccccn2)N1c1ccccc1	> 200 µM	6.31 µM	
Cc1ccc(Nc2[nH]c(=O)[nH]c(=O)c2C)cc1Cl	> 200 µM	158 µM	
COC1/C=C/OC2(C)Oc3c(C)c(O)c4c(O)c(c(CNCc5ccccc5)c(O)c4c3C2=O)NC(=O)/C(C)=C\C=C\C(C)C(O)C(C)C(O)C(C)C(OC(C)=O)C1C (configuration not stated)	> 200 µM	1.51 µM	
C=C1C(=O)O[C@@H]2C[C@@H](C)[C@@H]3C=CC(=O)[C@@]3(C)[C@@H](O)[C@H]12	> 9.55 µM	0.513 µM	
NC1CC2C3CCC2C1C3=O (configuration not stated)	> 200 µM	> 200 µM	
CC1(O)c2ccccc2[P+](C)(c2ccccc2)c2ccccc21 (configuration not stated)	> 562 µM	29.5 µM	
NCC(NC(=O)OCc1ccccc1)C(=O)O (configuration not stated)	> 105 µM	> 105 µM	
CSC1=N/C(=C\c2ccco2)C(=O)N1CN1CCCCC1	> 200 µM	102 µM	
COc1ccc(C(c2c(O)c3ccccc3oc2=O)c2c(O)c3ccccc3oc2=O)cc1	> 200 µM	87.1 µM	
CC(C)(C)OC(=O)c1ccc(NCC2=C(Br)C(=O)C=CC2=O)cc1	> 200 µM	11.5 µM	
